According to ChEMBL document CHEMBL3259742, “Design and synthesis of triazolopyrimidine acylsulfonamides as novel anti-mycobacterial leads acting through inhibition of acetohydroxyacid synthase” (Bioorg Med Chem Lett, 2014):
≈ marks a conversion by molar mass, not a printed value.

Tests used:
[1] = test system: Mycobacterium tuberculosis; experiment: Antimycobacterial activity against Mycobacterium tuberculosis H37Rv ATCC 27294 after 7 days by resazurin assay in presence of Isoleucine, Leucine and Valine; assay type: functional; conditions: H37Rv ATCC 27294, 168 h
[2] = test system: Mycobacterium tuberculosis; experiment: Antimycobacterial activity against Mycobacterium tuberculosis H37Rv ATCC 27294 after 7 days by resazurin assay; assay type: functional; conditions: H37Rv ATCC 27294, 168 h
[3] = Inhibition of Mycobacterium tuberculosis acetohydroxy acid synthase after 60 mins by acetoin formation-based colorimetry

Row | Structure (SMILES) | MIC [1] [µg/mL] | MIC [2] [µg/mL] | pIC50 [3]
1 | Cc1cc(C)n2nc(C(=O)NS(=O)(=O)c3ccccc3C(F)(F)F)nc2n1 | > 32 | ≤ 0.13 | 6.98
2 | Cc1cc(C)n2nc(C(=O)NS(=O)(=O)c3ccccc3Cl)nc2n1 | > 32 | 2 (≈ 5.47 µM) | 6.82
3 | Cc1cc(C)n2nc(C(=O)NS(=O)(=O)c3ccccc3Br)nc2n1 | > 32 | 0.25 (≈ 0.609 µM) | 7.04
4 | COC(=O)c1ccccc1S(=O)(=O)NC(=O)c1nc2nc(C)cc(C)n2n1 | > 32 | 0.25 (≈ 0.642 µM) | 7.15
5 | Cc1cc(C)n2nc(C(=O)NS(=O)(=O)c3ccccc3OC(F)(F)F)nc2n1 | > 32 | 0.03 (≈ 0.0722 µM) | 7.6
6 | Cc1cc(C)n2nc(C(=O)NS(=O)(=O)c3ccccc3F)nc2n1 | > 32 | > 32 | 5.24
7 | Cc1cc(C)n2nc(C(=O)NS(=O)(=O)c3ccccc3C)nc2n1 | > 32 | 1 (≈ 2.9 µM) | 6.29
8 | COc1ccccc1S(=O)(=O)NC(=O)c1nc2nc(C)cc(C)n2n1 | > 32 | 0.5 (≈ 1.38 µM) | 5.81
9 | Cc1cc(C)n2nc(C(=O)NS(=O)(=O)c3ccccc3OC(F)F)nc2n1 | > 32 | < 0.25 | > 7.2
10 | Cc1cc(C)n2nc(C(=O)NS(=O)(=O)c3ccccc3CC#N)nc2n1 |  | 32 (≈ 86.4 µM) | 6.59
11 | Cc1cc(C)n2nc(C(=O)NS(=O)(=O)c3cccc(Br)c3)nc2n1 |  | 32 (≈ 78 µM) | 5.31
12 | Cc1cc(C)n2nc(C(=O)NS(=O)(=O)c3cccc(C(F)(F)F)c3)nc2n1 |  | 16 (≈ 40.1 µM) | 5.36
13 | Cc1cc(C)n2nc(C(=O)NS(=O)(=O)c3cccc(OC(F)(F)F)c3)nc2n1 |  | 16 (≈ 38.5 µM) | 5.6
14 | Cc1cc(C)n2nc(C(=O)NS(=O)(=O)c3ccc(OC(F)(F)F)cc3)nc2n1 |  | > 32 | < 4.52
15 | Cc1cc(C)n2nc(C(=O)NS(=O)(=O)c3ccc(C(F)(F)F)cc3)nc2n1 |  | > 32 | < 4.52
16 | Cc1cc(C)n2nc(C(=O)NS(=O)(=O)c3c(C)cccc3Cl)nc2n1 | > 32 | 0.25 (≈ 0.658 µM) | 6.7
17 | Cc1cc(C)n2nc(C(=O)NS(=O)(=O)c3c(C)cccc3OC(F)(F)F)nc2n1 | > 32 | ≤ 0.03 | 7.75
18 | Cc1cc(C)n2nc(C(=O)NS(=O)(=O)c3c(C)cccc3C)nc2n1 | > 32 | 0.5 (≈ 1.39 µM) | 6.54
19 | COC(=O)c1ccccc1S(=O)(=O)NC(=O)Nc1nc(C)cc(C)n1 [SULFOMETURON METHYL] | > 32 | 16 (≈ 43.9 µM) | 6.12
